In ChEMBL document CHEMBL5726443, “Bicyclic sulfonamide compounds as sodium channel inhibitors” (2017):

Biological target: Sodium channel protein type 9 subunit alpha (Homo sapiens, UniProt Q15858)
Assay: Compound effects were measured on a partially inactivated state of the sodium channel. Cells were clamped to a holding potential yielding 20 to 50% inactivation. To elicit sodium current, channels were activated by pulsing to ⿿10 mV for 20 msec. This voltage protocol was repeated at a rate of 0.1 Hz throughout the experiment.

Chain of Sodium channel protein type 9 subunit alpha (Q15858 whole entry): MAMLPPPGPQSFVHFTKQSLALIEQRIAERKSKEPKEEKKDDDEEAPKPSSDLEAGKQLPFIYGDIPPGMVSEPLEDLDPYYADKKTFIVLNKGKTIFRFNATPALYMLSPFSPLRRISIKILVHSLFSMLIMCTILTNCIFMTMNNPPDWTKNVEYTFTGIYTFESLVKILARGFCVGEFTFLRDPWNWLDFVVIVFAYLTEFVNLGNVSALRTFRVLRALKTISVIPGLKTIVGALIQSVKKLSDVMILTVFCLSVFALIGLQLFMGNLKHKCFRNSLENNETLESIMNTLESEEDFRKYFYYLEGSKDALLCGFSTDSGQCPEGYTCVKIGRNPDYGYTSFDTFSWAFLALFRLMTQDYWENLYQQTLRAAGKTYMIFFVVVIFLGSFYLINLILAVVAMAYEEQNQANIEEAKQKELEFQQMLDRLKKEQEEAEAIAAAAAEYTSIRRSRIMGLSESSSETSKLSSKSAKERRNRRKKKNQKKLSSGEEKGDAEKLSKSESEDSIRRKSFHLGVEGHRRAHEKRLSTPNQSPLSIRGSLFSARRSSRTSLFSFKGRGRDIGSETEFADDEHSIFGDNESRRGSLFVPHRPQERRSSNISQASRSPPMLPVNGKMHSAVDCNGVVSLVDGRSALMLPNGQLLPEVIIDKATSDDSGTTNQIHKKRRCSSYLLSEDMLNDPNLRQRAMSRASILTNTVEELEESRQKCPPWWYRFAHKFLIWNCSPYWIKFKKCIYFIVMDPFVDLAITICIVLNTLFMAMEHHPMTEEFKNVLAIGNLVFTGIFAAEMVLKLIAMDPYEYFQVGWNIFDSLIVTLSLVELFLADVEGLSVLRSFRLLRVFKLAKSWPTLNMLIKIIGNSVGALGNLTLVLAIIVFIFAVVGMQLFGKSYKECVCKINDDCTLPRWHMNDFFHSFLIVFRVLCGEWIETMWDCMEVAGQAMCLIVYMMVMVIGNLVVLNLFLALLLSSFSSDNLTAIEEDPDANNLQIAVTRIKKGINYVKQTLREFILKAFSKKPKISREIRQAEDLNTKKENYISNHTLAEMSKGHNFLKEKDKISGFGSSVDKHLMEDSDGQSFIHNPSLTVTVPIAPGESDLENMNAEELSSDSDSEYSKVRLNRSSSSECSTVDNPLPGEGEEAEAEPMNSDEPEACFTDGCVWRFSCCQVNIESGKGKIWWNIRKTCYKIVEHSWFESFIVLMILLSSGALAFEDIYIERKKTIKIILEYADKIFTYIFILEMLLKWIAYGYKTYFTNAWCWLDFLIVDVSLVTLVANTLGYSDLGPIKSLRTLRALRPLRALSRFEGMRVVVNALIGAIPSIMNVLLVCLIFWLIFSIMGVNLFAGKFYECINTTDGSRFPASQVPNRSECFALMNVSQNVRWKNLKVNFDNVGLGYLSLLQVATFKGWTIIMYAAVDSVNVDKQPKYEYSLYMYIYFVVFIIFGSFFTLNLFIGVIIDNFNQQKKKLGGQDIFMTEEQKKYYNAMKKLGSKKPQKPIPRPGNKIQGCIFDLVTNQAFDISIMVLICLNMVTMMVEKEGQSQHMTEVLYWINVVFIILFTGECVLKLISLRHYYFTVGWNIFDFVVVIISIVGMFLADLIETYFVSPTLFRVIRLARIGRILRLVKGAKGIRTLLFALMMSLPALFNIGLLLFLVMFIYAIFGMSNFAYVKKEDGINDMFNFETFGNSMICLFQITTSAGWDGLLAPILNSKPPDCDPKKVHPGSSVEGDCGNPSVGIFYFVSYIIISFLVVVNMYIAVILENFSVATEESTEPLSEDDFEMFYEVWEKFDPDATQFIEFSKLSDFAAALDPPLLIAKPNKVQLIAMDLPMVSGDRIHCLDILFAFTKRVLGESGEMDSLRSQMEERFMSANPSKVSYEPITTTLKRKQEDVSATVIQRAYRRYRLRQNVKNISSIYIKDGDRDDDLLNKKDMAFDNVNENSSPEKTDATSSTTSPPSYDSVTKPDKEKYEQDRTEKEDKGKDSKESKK

| Structure (SMILES) | IC50 |
| --- | --- |
| COc1cc(-c2cccc(Cl)c2)c(F)cc1-c1ncnc2cc(S(=O)(=O)Nc3ncc(F)cn3)ccc12 | 107 nM |
| COc1cc(-c2ccc(F)c(C)n2)c(C)cc1-c1ncnc2cc(S(=O)(=O)Nc3ccon3)ccc12 | 445 nM |
| COc1cc(-c2ccc(Cl)c(F)c2)c(C#N)cc1-c1nccc2cc(S(=O)(=O)Nc3nncs3)ccc12 | 18.6 nM |
| COc1cc(-c2ccc(F)c(Cl)c2)c(C#N)cc1-c1nccc2cc(S(=O)(=O)Nc3nncs3)ccc12 | 9.2 nM |
| COc1cc(-c2cccc(C(F)(F)F)c2)c(C)cc1-c1nccc2cc(S(=O)(=O)Nc3ccon3)ccc12 | 60.9 nM |
